According to patent US6960574B2, “Antagonists of RF-amide neuropeptides” (University of Florida, priority 2002, dated 2005):
Square brackets hold non-standard residues; d marks the D form. Peptide text beside a SMILES is read from it. * marks the point of attachment. ξ: configuration not given here. Dansyl = CN(C)c1cccc2c(S(=O)(=O)*)cccc12; ξL = CC(C)CC(N)C(=O)O

Tested on: receptor labeled by the radioiodinated analogue of 1 (4, [125I]-YLFQPQRF-NH2); neuropeptide FF receptor
Test: Competitive radioligand binding against 4 ([125I]Y8F-amide)
Conditions: mixture-based positional scanning; difference from averaged radioligand displacement of whole library (0); about 80 a.u. = 10-fold change in Ki

Relative Binding Index (RBI) [a.u.] | SMILES
20 | CN(C)c1cccc2c(S(=O)(=O)N[C@@H](Cc3cnc[nH]3)C(=O)N3CCC[C@H]3C(=O)N[C@@H](CCCNC(=N)N)C(N)=O)cccc12 [Dansyl-HPR-amide] (Dansyl-His-Pro-Arg-NH2)
30 | CN(C)c1cccc2c(S(=O)(=O)N[C@@H](Cc3cnc[nH]3)C(=O)N[C@@H](CCC(N)=O)C(=O)N[C@@H](CCCNC(=N)N)C(N)=O)cccc12 [Dansyl-HQR-amide] (Dansyl-His-Gln-Arg-NH2)
15 | CN(C)c1cccc2c(S(=O)(=O)N[C@@H](Cc3cnc[nH]3)C(=O)N[C@@H](CCCNC(=N)N)C(=O)N[C@@H](CCCNC(=N)N)C(N)=O)cccc12 [Dansyl-HRR-amide] (Dansyl-His-Arg-Arg-NH2)
37 | CN(C)c1cccc2c(S(=O)(=O)N[C@@H](Cc3c[nH]cn3)C(=O)N[C@@H](CO)C(=O)N[C@@H](CCCNC(=N)N)C(N)=O)cccc12 [Dansyl-HSR-amide] (Dansyl-His-Ser-Arg-NH2)
22 | C[C@@H](O)[C@H](NC(=O)[C@H](Cc1cnc[nH]1)NS(=O)(=O)c1cccc2c(N(C)C)cccc12)C(=O)N[C@@H](CCCNC(=N)N)C(N)=O [Dansyl-HTR-amide] (Dansyl-His-Thr-Arg-NH2)
12 | CC(C)[C@H](NC(=O)[C@H](Cc1c[nH]cn1)NS(=O)(=O)c1cccc2c(N(C)C)cccc12)C(=O)N[C@@H](CCCNC(=N)N)C(N)=O [Dansyl-HVR-amide] (Dansyl-His-Val-Arg-NH2)
26 | CN(C)c1cccc2c(S(=O)(=O)N[C@@H](Cc3cnc[nH]3)C(=O)N[C@@H](Cc3c[nH]c4ccccc34)C(=O)N[C@@H](CCCNC(=N)N)C(N)=O)cccc12 [Dansyl-HWR-amide] (Dansyl-His-Trp-Arg-NH2)
16 | CN(C)c1cccc2c(S(=O)(=O)N[C@@H](Cc3c[nH]cn3)C(=O)N[C@@H](Cc3ccc(O)cc3)C(=O)N[C@@H](CCCNC(=N)N)C(N)=O)cccc12 [Dansyl-HYR-amide] (Dansyl-His-Tyr-Arg-NH2)
−60 | CC[C@H](C)[C@H](NS(=O)(=O)c1cccc2c(N(C)C)cccc12)C(=O)N[C@@H](C)C(=O)N[C@@H](CCCNC(=N)N)C(N)=O [Dansyl-IAR-amide] (Dansyl-Ile-Ala-Arg-NH2)
−29 | CC[C@H](C)[C@H](NS(=O)(=O)c1cccc2c(N(C)C)cccc12)C(=O)N[C@@H](CC(=O)O)C(=O)N[C@@H](CCCNC(=N)N)C(N)=O [Dansyl-IDR-amide] (Dansyl-Ile-Asp-Arg-NH2)
−11 | CC[C@H](C)[C@H](NS(=O)(=O)c1cccc2c(N(C)C)cccc12)C(=O)N[C@@H](CCC(=O)O)C(=O)N[C@@H](CCCNC(=N)N)C(N)=O [Dansyl-IER-amide] (Dansyl-Ile-Glu-Arg-NH2)
−12 | CC[C@H](C)[C@H](NS(=O)(=O)c1cccc2c(N(C)C)cccc12)C(=O)N[C@@H](Cc1ccccc1)C(=O)N[C@@H](CCCNC(=N)N)C(N)=O [Dansyl-IFR-amide] (Dansyl-Ile-Phe-Arg-NH2)
−6 | CC[C@H](C)[C@H](NS(=O)(=O)c1cccc2c(N(C)C)cccc12)C(=O)NCC(=O)N[C@@H](CCCNC(=N)N)C(N)=O [Dansyl-IGR-amide] (Dansyl-Ile-Gly-Arg-NH2)
−17 | CC[C@H](C)[C@H](NS(=O)(=O)c1cccc2c(N(C)C)cccc12)C(=O)N[C@@H](Cc1c[nH]cn1)C(=O)N[C@@H](CCCNC(=N)N)C(N)=O [Dansyl-IHR-amide] (Dansyl-Ile-His-Arg-NH2)
−5 | CC[C@H](C)[C@H](NC(=O)[C@@H](NS(=O)(=O)c1cccc2c(N(C)C)cccc12)[C@@H](C)CC)C(=O)N[C@@H](CCCNC(=N)N)C(N)=O [Dansyl-IIR-amide] (Dansyl-Ile-Ile-Arg-NH2)
−13 | CCC(C)C(NS(=O)(=O)c1cccc2c(N(C)C)cccc12)C(=O)NC(CCCCN)C(=O)NC(CCCNC(=N)N)C(N)=O (stereo not drawn) [Dansyl-IKR-amide] (Dansyl-Ile-Lys-Arg-NH2; configuration not given here)
−19 | CC[C@H](C)[C@H](NS(=O)(=O)c1cccc2c(N(C)C)cccc12)C(=O)N[C@@H](CC(C)C)C(=O)N[C@@H](CCCNC(=N)N)C(N)=O [Dansyl-ILR-amide] (Dansyl-Ile-Leu-Arg-NH2)
−11 | CC[C@H](C)[C@H](NS(=O)(=O)c1cccc2c(N(C)C)cccc12)C(=O)N[C@@H](CCSC)C(=O)N[C@@H](CCCNC(=N)N)C(N)=O [Dansyl-IMR-amide] (Dansyl-Ile-Met-Arg-NH2)
−10 | CC[C@H](C)[C@H](NS(=O)(=O)c1cccc2c(N(C)C)cccc12)C(=O)N[C@@H](CC(N)=O)C(=O)N[C@@H](CCCNC(=N)N)C(N)=O [Dansyl-INR-amide] (Dansyl-Ile-Asn-Arg-NH2)
−8 | CC[C@H](C)[C@H](NS(=O)(=O)c1cccc2c(N(C)C)cccc12)C(=O)N1CCC[C@H]1C(=O)N[C@@H](CCCNC(=N)N)C(N)=O [Dansyl-IPR-amide] (Dansyl-Ile-Pro-Arg-NH2)

Relative Binding Index (RBI) [a.u.] | SMILES
3 | CC[C@H](C)[C@H](NS(=O)(=O)c1cccc2c(N(C)C)cccc12)C(=O)N[C@@H](CCC(N)=O)C(=O)N[C@@H](CCCNC(=N)N)C(N)=O [Dansyl-IQR-amide] (Dansyl-Ile-Gln-Arg-NH2)
−12 | CC[C@H](C)[C@H](NS(=O)(=O)c1cccc2c(N(C)C)cccc12)C(=O)N[C@@H](CCCNC(=N)N)C(=O)N[C@@H](CCCNC(=N)N)C(N)=O [Dansyl-IRR-amide] (Dansyl-Ile-Arg-Arg-NH2)
10 | CC[C@H](C)[C@H](NS(=O)(=O)c1cccc2c(N(C)C)cccc12)C(=O)N[C@@H](CO)C(=O)N[C@@H](CCCNC(=N)N)C(N)=O [Dansyl-ISR-amide] (Dansyl-Ile-Ser-Arg-NH2)
−6 | CC[C@H](C)[C@H](NS(=O)(=O)c1cccc2c(N(C)C)cccc12)C(=O)N[C@H](C(=O)N[C@@H](CCCNC(=N)N)C(N)=O)[C@@H](C)O [Dansyl-ITR-amide] (Dansyl-Ile-Thr-Arg-NH2)
−16 | CC[C@H](C)[C@H](NS(=O)(=O)c1cccc2c(N(C)C)cccc12)C(=O)N[C@H](C(=O)N[C@@H](CCCNC(=N)N)C(N)=O)C(C)C [Dansyl-IVR-amide] (Dansyl-Ile-Val-Arg-NH2)
−2 | CC[C@H](C)[C@H](NS(=O)(=O)c1cccc2c(N(C)C)cccc12)C(=O)N[C@@H](Cc1c[nH]c2ccccc12)C(=O)N[C@@H](CCCNC(=N)N)C(N)=O [Dansyl-IWR-amide] (Dansyl-Ile-Trp-Arg-NH2)
−12 | CC[C@H](C)[C@H](NS(=O)(=O)c1cccc2c(N(C)C)cccc12)C(=O)N[C@@H](Cc1ccc(O)cc1)C(=O)N[C@@H](CCCNC(=N)N)C(N)=O [Dansyl-IYR-amide] (Dansyl-Ile-Tyr-Arg-NH2)
−24 | C[C@H](NC(=O)[C@H](CCCCN)NS(=O)(=O)c1cccc2c(N(C)C)cccc12)C(=O)N[C@@H](CCCNC(=N)N)C(N)=O [Dansyl-KAR-amide] (Dansyl-Lys-Ala-Arg-NH2)
7 | CN(C)c1cccc2c(S(=O)(=O)N[C@@H](CCCCN)C(=O)N[C@@H](CC(=O)O)C(=O)N[C@@H](CCCNC(=N)N)C(N)=O)cccc12 [Dansyl-KDR-amide] (Dansyl-Lys-Asp-Arg-NH2)
25 | CN(C)c1cccc2c(S(=O)(=O)N[C@@H](CCCCN)C(=O)N[C@@H](CCC(=O)O)C(=O)N[C@@H](CCCNC(=N)N)C(N)=O)cccc12 [Dansyl-KER-amide] (Dansyl-Lys-Glu-Arg-NH2)
23 | CN(C)c1cccc2c(S(=O)(=O)N[C@@H](CCCCN)C(=O)N[C@@H](Cc3ccccc3)C(=O)N[C@@H](CCCNC(=N)N)C(N)=O)cccc12 [Dansyl-KFR-amide] (Dansyl-Lys-Phe-Arg-NH2)
30 | CN(C)c1cccc2c(S(=O)(=O)N[C@@H](CCCCN)C(=O)NCC(=O)N[C@@H](CCCNC(=N)N)C(N)=O)cccc12 [Dansyl-KGR-amide] (Dansyl-Lys-Gly-Arg-NH2)
19 | CN(C)c1cccc2c(S(=O)(=O)N[C@@H](CCCCN)C(=O)N[C@@H](Cc3c[nH]cn3)C(=O)N[C@@H](CCCNC(=N)N)C(N)=O)cccc12 [Dansyl-KHR-amide] (Dansyl-Lys-His-Arg-NH2)
31 | CCC(C)C(NC(=O)C(CCCCN)NS(=O)(=O)c1cccc2c(N(C)C)cccc12)C(=O)NC(CCCNC(=N)N)C(N)=O (stereo not drawn) [Dansyl-KIR-amide] (Dansyl-Lys-Ile-Arg-NH2; configuration not given here)
22 | CN(C)c1cccc2c(S(=O)(=O)N[C@@H](CCCCN)C(=O)N[C@@H](CCCCN)C(=O)N[C@@H](CCCNC(=N)N)C(N)=O)cccc12 [Dansyl-KKR-amide] (Dansyl-Lys-Lys-Arg-NH2)
16 | CC(C)CC(NC(=O)[C@H](CCCCN)NS(=O)(=O)c1cccc2c(N(C)C)cccc12)C(=O)N[C@@H](CCCNC(=N)N)C(N)=O (stereo partly shown) [Dansyl-KLR-amide] (Dansyl-Lys-[ξL]-Arg-NH2)
25 | CSCC[C@H](NC(=O)[C@H](CCCCN)NS(=O)(=O)c1cccc2c(N(C)C)cccc12)C(=O)N[C@@H](CCCNC(=N)N)C(N)=O [Dansyl-KMR-amide] (Dansyl-Lys-Met-Arg-NH2)
26 | CN(C)c1cccc2c(S(=O)(=O)N[C@@H](CCCCN)C(=O)N[C@@H](CC(N)=O)C(=O)N[C@@H](CCCNC(=N)N)C(N)=O)cccc12 [Dansyl-KNR-amide] (Dansyl-Lys-Asn-Arg-NH2)
28 | CN(C)c1cccc2c(S(=O)(=O)N[C@@H](CCCCN)C(=O)N3CCC[C@H]3C(=O)N[C@@H](CCCNC(=N)N)C(N)=O)cccc12 [Dansyl-KPR-amide] (Dansyl-Lys-Pro-Arg-NH2)
38 | CN(C)c1cccc2c(S(=O)(=O)N[C@@H](CCCCN)C(=O)N[C@@H](CCC(N)=O)C(=O)N[C@@H](CCCNC(=N)N)C(N)=O)cccc12 [Dansyl-KQR-amide] (Dansyl-Lys-Gln-Arg-NH2)
